{"source": "patent US20250043299A1", "about": "“POINT MUTATIONS THAT BOOST AROMATIC AMINO ACID PRODUCTION AND CO2 ASSIMILATION IN PLANTS” (Wisconsin Alumni Research Foundation, priority 2021, published 2025)", "key": {"[1]": {"molecular_target": "T1, Arabidopsis thaliana DHS2 (AtDHS2), wild type (DHS2^WT), SEQ ID NO:2 (Arabidopsis thaliana, UniProt Q00218)", "T1 construct": "without the predicted plastid transit peptide (amino acid residues; 49-525, 34-507, and 52-527, respectively); made in house; host or cells: E. coli Rosetta-2", "T1 sequence (Q00218 34-507)": "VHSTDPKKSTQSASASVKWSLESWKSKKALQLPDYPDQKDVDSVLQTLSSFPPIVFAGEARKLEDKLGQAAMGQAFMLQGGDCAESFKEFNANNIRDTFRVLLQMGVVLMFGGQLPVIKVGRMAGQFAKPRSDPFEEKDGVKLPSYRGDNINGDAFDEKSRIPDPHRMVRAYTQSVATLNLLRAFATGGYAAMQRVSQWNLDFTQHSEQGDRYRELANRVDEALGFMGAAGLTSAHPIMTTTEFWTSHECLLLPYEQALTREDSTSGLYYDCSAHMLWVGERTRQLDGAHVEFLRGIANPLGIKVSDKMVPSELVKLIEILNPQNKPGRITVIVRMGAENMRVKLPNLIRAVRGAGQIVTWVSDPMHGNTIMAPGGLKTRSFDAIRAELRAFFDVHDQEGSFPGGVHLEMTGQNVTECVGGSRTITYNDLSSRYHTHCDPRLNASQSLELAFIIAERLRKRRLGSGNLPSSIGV", "conditions": "DHS2^WT; values for AAAs, chorismate, caffeate from Yokoyama et al., Plant Cell, 2021; cited from earlier work"}, "[2]": {"system": "Arabidopsis thaliana DHS^WT isoforms (DHS1, DHS2, DHS3), SEQ ID NO:1-3", "conditions": "reference 9; cited from earlier work"}, "[3]": {"molecular_target": "T2, Arabidopsis thaliana DHS1 (SEQ ID NO:1) variant DHS1^B4 (sotaB4), G244R (Arabidopsis thaliana, UniProt P29976, G244R)", "T2 construct": "without the predicted plastid transit peptide (amino acid residues; 49-525, 34-507, and 52-527, respectively); made in house; host or cells: E. coli", "T2 sequence (P29976 49-525 G244R)": "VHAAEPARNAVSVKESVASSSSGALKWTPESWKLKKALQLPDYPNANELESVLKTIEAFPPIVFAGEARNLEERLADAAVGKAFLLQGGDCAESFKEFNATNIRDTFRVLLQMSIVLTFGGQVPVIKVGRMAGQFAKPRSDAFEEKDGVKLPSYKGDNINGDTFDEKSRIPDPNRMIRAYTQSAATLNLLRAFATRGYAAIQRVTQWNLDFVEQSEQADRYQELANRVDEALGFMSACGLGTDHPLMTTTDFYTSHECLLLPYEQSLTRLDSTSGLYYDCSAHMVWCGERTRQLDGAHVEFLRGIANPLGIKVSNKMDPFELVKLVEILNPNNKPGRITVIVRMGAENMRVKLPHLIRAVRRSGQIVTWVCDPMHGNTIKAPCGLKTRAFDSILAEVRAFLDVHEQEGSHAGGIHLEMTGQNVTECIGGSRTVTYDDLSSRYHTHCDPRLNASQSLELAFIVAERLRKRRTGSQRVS", "assay": "DHS enzyme assay with effector, DHS1 sotaB4", "format": "biochemical", "procedure": "(§1) To generate recombinant DHS proteins the pET28a vectors carrying the A. thaliana DHS1 (AtDHS1), AtDHS2, or AtDHS3 WT sequence without the predicted plastid transit peptide (amino acid residues; 49-525, 34-507, and 52-527, respectively) were expressed in E. coli Rosetta-2 cells and purified using Ni-affinity chromatography, exactly as was conducted previously (9). To generate DHS proteins with individual sota mutations via site-directed mutagenesis, these pET28a plasmid templates were diluted by 500-fold, mixed with 0.04 U/μL Phusion DNA polymerase (Thermo Scientific), 0.2 mM deoxynucleoside triphosphates (dNTPs), 1× Phusion reaction buffer (Thermo Scientific), and 0.5 μM forward and reverse mutagenesis primers (Table 10). The PCR reaction was run using the following protocol: 98° C. for 30 s followed by 20 cycles of 10 s at 98° C., 20 s at 70° C., 4.5 min at 72° C. with a final extension at 72° C. for 10 min. The PCR products were purified using a QIAquick Gel Extraction Kit (QIAGEN), treated with FastDigest DpnI (Thermo Scientific) to digest methylated plasmid template DNA for 20 min at 37° C., and transformed into E. coli cells. The mutagenized pET28a plasmids were sequenced to confirm that no errors were introduced during the mutagenesis process.\n(§2) The DHS enzyme assays were conducted using the colorimetric method that we recently described (9). Briefly, the enzyme solution (7.7 μl) containing 50 mM Hepes (pH 7.4) was preincubated with an effector molecule(s) at room temperature for 15 min. For assays using recombinant protein and enzyme fractions isolated from plant leaves, 0.01 to 0.1 μg and approximately 50 μg of proteins were used, respectively. After adding 0.5 μl of 0.1 M dithiothreitol, the samples were further incubated at room temperature for 15 min. During these incubations, the substrate solution containing 50 mM Hepes (pH 7.4), 2 mM MnCl2, 4 mM E4P, and 4 mM PEP at final concentration was preheated at 37° C. The enzyme reaction was started by adding 6.8 μl of the substrate solution, then incubated at 37° C. for 30 min, and terminated by adding 30 μl of 0.6 M trichloroacetic acid. After a brief centrifugation, 5 μl of 200 mM NaIO4 (sodium meta-periodate) in 9 N H3PO4 was added to oxidize the enzymatic product and to incubate at 25° C. for 20 min. To stop the oxidation reaction, 20 μl of 0.75 M NaAsO2 (sodium arsenite), which was dissolved in 0.5 M Na2SO4 and 0.05 M H2SO4, was added and immediately mixed. After 5 min of incubation at room temperature, one-third of the sample solution was transferred to a new tube to be mixed with 50 μl of 40 mM thiobarbituric acid and incubated at 99° C. for 15 min in a thermal cycler. The mixture was added to 600 μl of cyclohexanone in eight-strip solvent-resistant plastic tubes, mixed vigorously, and centrifuged at 4500 g for 3 min to separate water- and cyclohexanone-based layers for the extraction off the developed pink chromophore. The absorbance of the pink supernatant was read at 549 nm with the microplate reader (Infinite 200 PRO, TECAN) to calculate DAHP production with the molar extinction coefficient at 549 nm (ε=549 nm) of 4.5×10^4 M^−1 cm^−1. Reaction mixtures with boiled enzymes were run in parallel and used as negative controls to estimate the background signal."}, "DHS2^A4": {"molecular_target": "T3, DHS2^A4 (Arabidopsis thaliana, UniProt Q00218, G222S)", "T3 construct": "without the predicted plastid transit peptide (amino acid residues; 49-525, 34-507, and 52-527, respectively); made in house; host or cells: E. coli", "T3 sequence (Q00218 34-507 G222S)": "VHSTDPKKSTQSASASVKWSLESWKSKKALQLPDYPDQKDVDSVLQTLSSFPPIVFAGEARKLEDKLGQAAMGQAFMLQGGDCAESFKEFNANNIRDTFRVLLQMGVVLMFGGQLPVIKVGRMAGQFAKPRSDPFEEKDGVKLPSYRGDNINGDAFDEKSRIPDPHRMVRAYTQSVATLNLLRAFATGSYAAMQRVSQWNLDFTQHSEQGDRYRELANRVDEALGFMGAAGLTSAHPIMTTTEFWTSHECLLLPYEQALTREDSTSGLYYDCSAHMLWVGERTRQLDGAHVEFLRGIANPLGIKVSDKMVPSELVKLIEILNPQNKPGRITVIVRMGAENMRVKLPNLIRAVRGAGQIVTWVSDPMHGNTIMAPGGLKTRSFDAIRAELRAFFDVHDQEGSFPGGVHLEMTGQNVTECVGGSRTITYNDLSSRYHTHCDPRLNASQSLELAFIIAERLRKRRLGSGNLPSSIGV", "format": "biochemical", "procedure": "as §1, §2"}, "DHS1^B4": {"molecular_target": "T4, DHS1^B4 (Arabidopsis thaliana, UniProt P29976, G244R)", "T4 construct": "without the predicted plastid transit peptide (amino acid residues; 49-525, 34-507, and 52-527, respectively); made in house; host or cells: E. coli", "T4 sequence (P29976 49-525 G244R)": "as the sequence (P29976 49-525 G244R) above", "assay": "DHS enzyme assay, recombinant DHS1^B4", "format": "biochemical", "procedure": "as §1, §2"}, "[4]": {"molecular_target": "T5, Arabidopsis thaliana DHS2 (SEQ ID NO:2) variant DHS2^A4 (sotaA4), G222S (Arabidopsis thaliana, UniProt Q00218, G222S)", "T5 construct": "without the predicted plastid transit peptide (amino acid residues; 49-525, 34-507, and 52-527, respectively); made in house; host or cells: E. coli", "T5 sequence (Q00218 34-507 G222S)": "as the sequence (Q00218 34-507 G222S) above", "assay": "biochemical", "format": "biochemical", "procedure": "as §1, §2"}, "[5]": {"molecular_target": "T6, Arabidopsis thaliana DHS1 (AtDHS1), wild type (DHS1^WT), SEQ ID NO:1 (Arabidopsis thaliana, UniProt P29976)", "T6 construct": "without the predicted plastid transit peptide (amino acid residues; 49-525, 34-507, and 52-527, respectively); made in house; host or cells: E. coli Rosetta-2", "T6 sequence (P29976 49-525)": "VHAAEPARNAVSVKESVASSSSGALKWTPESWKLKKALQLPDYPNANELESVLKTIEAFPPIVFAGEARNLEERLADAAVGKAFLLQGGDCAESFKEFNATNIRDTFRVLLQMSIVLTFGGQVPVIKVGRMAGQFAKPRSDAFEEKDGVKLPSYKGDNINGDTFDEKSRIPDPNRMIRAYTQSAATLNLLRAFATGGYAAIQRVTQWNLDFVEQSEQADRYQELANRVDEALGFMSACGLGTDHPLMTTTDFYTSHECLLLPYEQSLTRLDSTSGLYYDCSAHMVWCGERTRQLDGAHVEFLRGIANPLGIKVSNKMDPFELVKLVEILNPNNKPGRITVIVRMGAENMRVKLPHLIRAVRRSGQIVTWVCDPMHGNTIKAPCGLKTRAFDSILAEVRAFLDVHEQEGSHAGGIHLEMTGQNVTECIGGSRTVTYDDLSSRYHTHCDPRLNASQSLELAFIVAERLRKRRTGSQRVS", "conditions": "values for AAAs, chorismate, caffeate from Yokoyama et al., Plant Cell, 2021; cited from earlier work"}, "plant DHSs": {"system": "plant DHSs", "conditions": "prior reports (9); cited from earlier work"}, "[6]": {"system": "Arabidopsis Col-0 WT plants", "assay": "Plant growth on media containing ILA or IPA (feeding)", "format": "in vivo, Arabidopsis thaliana", "conditions": "IPA <10 μM; ILA 0-1000 μM in media", "description": "(A) A structural model of A. thaliana DHS2 (AtDHS2, purple) generated from the P. aeruginosa DHS (PaDHS, white) with Trp (magenta) bound. Residues corresponding to the sota mutations mapped onto the AtDHS2 model are highlighted in yellow. (B) Selected regions of the amino acid sequence alignment of PaDHS and AtDHS enzymes, with the positions of the sota mutations indicated by blue, red, green arrows for AtDHS1, AtDHS2, and AtDHS3, respectively. […] Data are means±SEM (n=3). (D) Screening of AAAs and AAA-derived metabolites as potential inhibitors of DHS1^WT and DHS2^WT. *P≤0.05, **P≤0.01, ***P≤0.001, and ****P≤0.0001 denote significant differences by one-way ANOVA with Dunnett's test against the corresponding “No effector” samples. Data are means±SEM (n=3). The dotted horizontal lines separate four sets of independent experiments. […] Data are means±SEM (n=3). (G) Plant picture (left) and fresh weight measurement (right) of 3-week-old Col-0, sotaB4, and sotaA4 mutants (Col-0 background) on the media containing ILA at 0, 250, 500, or 1000 μM. *P≤0.05 and **P≤0.01 denote significant differences by one-way ANOVA with Dunnett's test against the corresponding Col-0 samples (n=12 to 16 independent plant samples). […]"}, "DHS2^WT": {"molecular_target": "T7, DHS2^WT (Arabidopsis thaliana, UniProt Q00218)", "T7 construct": "without the predicted plastid transit peptide (amino acid residues; 49-525, 34-507, and 52-527, respectively); made in house; host or cells: E. coli Rosetta-2", "T7 sequence (Q00218 34-507)": "as the sequence (Q00218 34-507) above", "assay": "DHS enzyme assay, recombinant DHS2^WT", "format": "biochemical", "conditions": "FIG. 2D", "procedure": "as §1, §2"}, "DHS1^WT": {"molecular_target": "T8, DHS1^WT (Arabidopsis thaliana, UniProt P29976)", "T8 construct": "without the predicted plastid transit peptide (amino acid residues; 49-525, 34-507, and 52-527, respectively); made in house; host or cells: E. coli Rosetta-2", "T8 sequence (P29976 49-525)": "as the sequence (P29976 49-525) above", "assay": "DHS enzyme assay (colorimetric), recombinant DHS1^WT", "format": "biochemical", "procedure": "as §1, §2"}, "[7]": {"system": "Nicotiana benthamiana leaves", "assay": "Transient expression of Arabidopsis DHS1 WT and B4 in Nicotiana benthamiana, AAA levels by LC-MS", "format": "in vivo", "conditions": "two days after inoculation", "procedure": "Vectors for plant expression were made as previously described using MoClo modular cloning technology. For transient expression in Nicotiana benthamiana, gene expression of the protein coding sequence (CDS) of DHS1 WT and B4 were driven by a 1987-bp sequence obtained from the upstream region of the ubiquitin 10 gene (At4g05320) from Arabidopsis. In addition, a synthetic hemagglutinin (HA) tag comprising 6 repeats of the sequence […] (SEQ ID NO:75) was added to the C-terminus of the protein for quantification of protein expression using an anti-HA antibody. Vectors containing the promoter, CDS, epitope HA-tag, and a terminator were transformed into Agrobacterium tumefaciens via electroporation.\nPositive transformants were used to perform transient expression in Nicotiana benthamiana. Single colony bacteria were grown in LB media supplemented with kanamycin (100 mg/L) and gentamycin (100 mg/L) at 28° C. with constant agitation at 200 rpm. […] After complete resuspension, bacteria concentration was evaluated by spectrometry using optical density (OD) at 600 nm. […]\nEach inoculated leaf was separated into 4 quadrants, and each quadrant received a different bacteria solution containing a different vector. […] Samples for metabolite analysis were collected two days after inoculation and processed as previously described for quantification of aromatic amino acids."}}, "note": "Read-outs that look alike come from different tables or passages of the source."}
{"compound": "C=C(O[C@@H]1C=C(C(=O)O)C=C[C@H]1O)C(=O)O", "note": "[Chorismate]", "values": [{"measurement": "IC50", "setting": "[1]", "value": 81, "unit": "µM"}, {"measurement": "inhibition of all Arabidopsis DHS isoforms", "setting": "[2]", "value": "strongly inhibit all Arabidopsis DHS isoforms"}, {"measurement": "IC50", "setting": "[3]", "value": 0.0253, "unit": "mM"}, {"measurement": "inhibition of DHS1^B4", "setting": "[3]; FIG. 19", "value": "still strongly inhibited"}, {"measurement": "inhibition of DHS2^A4 activity", "setting": "DHS2^A4; effector up to 1 mM", "value": "still inhibited"}, {"measurement": "IC50", "setting": "DHS2^A4; recombinant enzyme, read-out: IC50 of effector molecule on DHS2^A4", "value": 102, "unit": "µM"}, {"measurement": "inhibition of DHS1^B4 activity", "setting": "DHS1^B4", "value": "still strongly inhibited"}, {"measurement": "IC50", "setting": "DHS1^B4; recombinant enzyme, read-out: IC50 of effector molecule on DHS1^B4", "value": 25.3, "unit": "µM"}, {"measurement": "IC50", "setting": "[4]", "value": 101, "unit": "µM"}, {"measurement": "inhibition of DHS2^A4", "setting": "[4]; up to 1 mM Tyr, Trp (FIG. 2C), shikimate, arogenate, prephenate at 1 mM (FIG. 21A)", "value": "still inhibited"}, {"measurement": "IC50", "setting": "[5]", "value": 14.6, "unit": "µM"}]}
{"compound": "O=C[C@H](O)[C@H](O)COP(=O)(O)O", "note": "[E4P, erythrose-4-phosphate]", "values": [{"measurement": "Km for E4P", "setting": "plant DHSs", "value": "high"}]}
{"compound": "O=C(O)C(O)Cc1c[nH]c2ccccc12", "note": "(stereo not drawn) [ILA, Indole-3-lactate]", "values": [{"measurement": "effect of feeding on plant growth", "setting": "[6]", "value": "growth inhibition"}, {"measurement": "effect on DHS2 activity (effector screening)", "setting": "DHS2^WT", "value": "reduced the activity"}, {"measurement": "effect on DHS1 activity (effector screening)", "setting": "DHS1^WT; FIG. 2D", "value": "reduced the activity"}, {"measurement": "IC50", "setting": "DHS1^WT; recombinant enzyme, read-out: IC50 of effector molecule on DHS1^WT", "value": 210, "unit": "µM"}, {"measurement": "IC50", "setting": "[3]; DHS1^B4, 4 mM E4P, 4 mM PEP, pH 7.4, 37° C.", "value": 2.88, "unit": "mM"}]}
{"compound": "Arabidopsis DHS1 sotaB4 mutant: Arabidopsis DHS1 enzyme with the sotaB4 mutation (G244R)", "values": [{"measurement": "production of tyrosine and phenylalanine in the tobacco plant", "setting": "[7]", "value": "significantly elevated production"}]}
